According to the supplement of paper PMC9262897, “Low-cost anti-mycobacterial drug discovery using engineered E. coli” (Nature Communications, 2022):

Columns and labels:
∆yeeO = experiment: growth (OD600 after 24 h); higher = more growth
Experimental: (§1)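 E. coli BW25113 ΔaraC (Efflux+) or efflux-pump deletion strains (ΔtolC ΔentC, ΔemrE, ΔmdtI, ΔyeeO, ΔmdtK, ΔmdtM) diluted 1:100 in M9-based medium with a drug dilution series. Growth is read as OD600 after 24 h; 3 biological replicates.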

∆mdtM = experiment: growth (OD600 after 24 h); higher = more growth
Experimental: as §1

∆tolC ∆entC = experiment: growth (OD600 after 24 h); higher = more growth
Experimental: as §1

∆mdtK = experiment: growth (OD600 after 24 h); higher = more growth
Experimental: as §1

∆emrE = experiment: growth (OD600 after 24 h); higher = more growth
Experimental: as §1

∆mdtI = experiment: growth (OD600 after 24 h); higher = more growth
Experimental: as §1

Efflux+ = experiment: growth (OD600 after 24 h); higher = more growth
Experimental: as §1

[1] = tested on: E. coli TESEC strain (Mtb target enzyme); experiment: growth (OD600 after 10 h); higher = more growth
Experimental: (§2)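 Chemical-genetic validation profiles: TESEC strains (Mtb Asd or DapB, arabinose-inducible) or the wild-type control grown in a two-dimensional dilution series of drug (µM) and arabinose. Growth is read as OD600 after 10 h in triplicate.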

[2] = tested on: E. coli wild-type control; experiment: growth (OD600 after 10 h); higher = more growth
Experimental: as §2

CN(Cc1cc(Br)cc(Br)c1N)C1CCCCC1 [Bromhexine]
growth
Conditions | Efflux+ | ∆emrE | ∆mdtI | ∆mdtK | ∆mdtM | ∆tolC ∆entC | ∆yeeO
drug 3 µM | 1.027 | 0.992 | 1.04 | 0.772 | 0.825 | 0.894 | 0.897
drug 6.25 µM | 0.989 | 1.08 | 1.01 | 0.792 | 0.819 | 0.989 | 0.881
drug 12.5 µM | 0.974 | 1.06 | 0.992 | 0.762 | 0.805 | 0.94 | 0.881
drug 25 µM | 0.9831 | 1.02 | 0.996 | 0.737 | 0.8363 | 0.564 | 0.8876
drug 50 µM | 1 | 1.02 | 0.994 | 0.743 | 0.8474 | 0.05317 | 0.905
drug 100 µM | 0.998 | 1.04 | 0.9907 | 0.7706 | 0.8478 | 0.0597 | 0.917

CC/C(=C(/CC)c1ccc(O)cc1)c1ccc(O)cc1 [Diethylstilbestrol]
growth
Conditions | Efflux+ | ∆emrE | ∆mdtI | ∆mdtK | ∆mdtM | ∆tolC ∆entC | ∆yeeO
drug 0.5 µM | 0.872 | 0.993 | 0.863 | 0.717 | 0.7859 | 0.995 | 0.983
drug 1.25 µM | 1.04 | 0.978 | 0.979 | 0.754 | 0.8345 | 1.04 | 0.991
drug 2.5 µM | 1.03 | 0.977 | 0.976 | 0.881 | 0.903 | 1.03 | 1.01
drug 5 µM | 1.07 | 1.01 | 0.9841 | 0.786 | 0.956 | 0.761 | 1
drug 10 µM | 1.056 | 1.06 | 1.02 | 0.84 | 0.9842 | 0.0999 | 1.04
drug 20 µM | 1.06 | 1.08 | 0.948 | 0.713 | 1.05 | 0.0484 | 1.07

N=C(N)c1ccc(OCCCCCOc2ccc(C(=N)N)cc2)cc1 [Pentamidine]
growth
Conditions | Efflux+ | ∆emrE | ∆mdtI | ∆mdtK | ∆mdtM | ∆tolC ∆entC | ∆yeeO
drug 6.25 µM | 0.978 | 0.879 | 1.003 | 0.814 | 0.809 | 0.996 | 0.845
drug 12.5 µM | 0.894 | 0.8324 | 0.936 | 0.77 | 0.7967 | 0.854 | 0.833
drug 25 µM | 0.88 | 0.826 | 0.89493 | 0.68 | 0.779 | 0.804 | 0.79
drug 50 µM | 0.805 | 0.811 | 0.837 | 0.513 | 0.745 | 0.709 | 0.758
drug 100 µM | 0.635 | 0.739 | 0.655 | 0.367 | 0.614 | 0.389 | 0.637
drug 200 µM | 0.337 | 0.615 | 0.352 | 0.212 | 0.502 | 0.0928 | 0.34

N=C(N)c1ccc(OCCCCCOc2ccc(C(=N)N)cc2)cc1 [Pentamidine] (TESEC target enzyme: Mtb DapB)
growth
Conditions | drug 0.7 µM | drug 1.5 µM | drug 3.5 µM | drug 7.8 µM | drug 17.6 µM | drug 39.5 µM | drug 88.9 µM
[1], arabinose 15560 nM | 0.117 | 0.131 | – | – | – | – | –
[1], arabinose 28008 nM | 0.207 | 0.18 | – | – | – | – | –
[1], arabinose 50414 nM | 0.186 | 0.187 | – | – | – | – | –
[1], arabinose 90744 nM | 0.207 | 0.195 | – | – | – | – | –
[1], arabinose 163340 nM | 0.225 | 0.21 | – | – | – | – | –
[1], arabinose 294012 nM | 0.218 | 0.235 | – | – | – | – | –
[1], arabinose 529221 nM | 0.208 | 0.192 | – | – | – | – | –
[1], arabinose 952599 nM | 0.2 | 0.225 | – | – | – | – | –
[1], arabinose 1714678 nM | 0.16 | 0.182 | – | – | – | – | –
[1], arabinose 3086420 nM | 0.133 | 0.153 | – | – | – | – | –
[1], arabinose 5555556 nM | 0.131 | 0.146 | – | – | – | – | –
[1], arabinose 10000000 nM | 0.127 | 0.124 | – | – | – | – | –
[2], arabinose 15560 nM | 0.275 | 0.32 | 0.321 | 0.289 | 0.269 | 0.258 | –
[2], arabinose 28008 nM | 0.317 | 0.309 | 0.301 | 0.293 | 0.231 | 0.259 | –
[2], arabinose 50414 nM | 0.321 | 0.318 | 0.304 | 0.291 | 0.235 | 0.233 | –
[2], arabinose 90744 nM | 0.29 | 0.289 | 0.305 | 0.312 | 0.261 | 0.246 | –
[2], arabinose 163340 nM | 0.311 | 0.319 | 0.308 | 0.271 | 0.257 | 0.256 | –
[2], arabinose 294012 nM | 0.207 | 0.29 | 0.277 | 0.313 | 0.271 | 0.249 | –
[2], arabinose 529221 nM | 0.168 | 0.225 | 0.257 | 0.302 | 0.257 | 0.251 | –
[2], arabinose 952599 nM | 0.163 | 0.141 | 0.201 | 0.236 | 0.221 | 0.239 | 0.206
[2], arabinose 1714678 nM | 0.137 | 0.161 | 0.193 | 0.18 | 0.179 | 0.231 | 0.161
[2], arabinose 3086420 nM | 0.13 | 0.149 | 0.156 | 0.185 | 0.113 | 0.145 | 0.157
[2], arabinose 5555556 nM | 0.125 | 0.126 | 0.177 | 0.203 | 0.12 | 0.136 | 0.16
[2], arabinose 10000000 nM | 0.115 | 0.151 | 0.13 | 0.16 | 0.129 | 0.131 | –

Nc1nc2ccc(OC(F)(F)F)cc2s1 [Riluzole] (TESEC target enzyme: Mtb Asd)
growth
Conditions | drug 1.7 µM | drug 3.9 µM | drug 8.7 µM | drug 19.5 µM | drug 43.9 µM | drug 98.8 µM | drug 222.2 µM
[1], arabinose 15560 nM | 0.165 | 0.155 | – | – | – | – | –
[1], arabinose 28008 nM | 0.133 | 0.157 | – | – | – | – | –
[1], arabinose 50414 nM | 0.166 | 0.157 | – | – | – | – | –
[1], arabinose 90744 nM | 0.192 | 0.171 | – | – | – | – | –
[1], arabinose 163340 nM | 0.22 | 0.199 | – | – | – | – | –
[1], arabinose 294012 nM | 0.261 | 0.239 | – | – | – | – | –
[1], arabinose 529221 nM | 0.271 | 0.263 | – | – | – | – | –
[1], arabinose 952599 nM | 0.28 | 0.312 | – | – | – | – | –
[1], arabinose 1714678 nM | 0.284 | 0.319 | – | – | – | – | –
[1], arabinose 3086420 nM | 0.246 | 0.237 | – | – | – | – | –
[1], arabinose 5555556 nM | 0.236 | 0.223 | – | – | – | – | –
[1], arabinose 10000000 nM | 0.215 | 0.224 | – | – | – | – | –
[2], arabinose 15560 nM | 0.226 | 0.226 | 0.232 | 0.219 | 0.202 | 0.188 | –
[2], arabinose 28008 nM | 0.2085 | 0.207 | 0.219 | 0.223 | 0.208 | 0.197 | –
[2], arabinose 50414 nM | 0.234 | 0.217 | 0.222 | 0.235 | 0.207 | 0.202 | –
[2], arabinose 90744 nM | 0.232 | 0.243 | 0.222 | 0.286 | 0.22 | 0.205 | –
[2], arabinose 163340 nM | 0.227 | 0.236 | 0.232 | 0.237 | 0.217 | 0.216 | –
[2], arabinose 294012 nM | 0.229 | 0.227 | 0.2601 | 0.231 | 0.221 | 0.216 | –
[2], arabinose 529221 nM | 0.227 | 0.236 | 0.226 | 0.208 | 0.221 | 0.231 | –
[2], arabinose 952599 nM | 0.2317 | 0.226 | 0.263 | 0.207 | 0.233 | 0.235 | 0.123
[2], arabinose 1714678 nM | 0.195 | 0.2 | 0.235 | 0.193 | 0.233 | 0.213 | 0.115
[2], arabinose 3086420 nM | 0.148 | 0.149 | 0.183 | 0.214 | 0.236 | 0.231 | 0.122
[2], arabinose 5555556 nM | 0.154 | 0.157 | 0.196 | 0.157 | 0.171 | 0.19 | 0.126
[2], arabinose 10000000 nM | 0.148 | 0.165 | 0.146 | 0.21 | 0.162 | 0.202 | –
